Data set [1] is described as follows: Weights, motility and side effects of nude mice in the xenograft experiment. Type of data set: in vivo, nude mice (NU/NU). The protocol: (§1) The polypeptide of the present invention is preventively injected into the rear parts of the necks of four nude mice (nude mice—NU/NU) for a week (5 times per week at a dose of 50 mg/Kg). Next, 1×10^6 lung cancer cells are injected into the hypodermic tissue of the right side of the abdomen of each nude mouse on Day 1. The abovementioned four nude mice function as the medicine test group. Next, the polypeptide is delivered to each nude mouse of the medicine test group at a dose of 50 mg/Kg 5 times per week from Day 1 to Day 43. Meanwhile, the weight and cancer size of each nude mouse of the medicine test group is recorded. The negative control group also has four nude mice. Normal saline having a pH of 7.2-7.4 is subcutaneously injected into the four nude mice of the negative control group for a week (5 times per week). Next, 1×10^6 lung cancer cells are injected into the hypodermic tissue of the right side of the abdomen of each nude mouse of the negative control group on Day 1. Next, normal saline is delivered to each nude mouse of the negative control group 5 times per week from Day 1 to Day 43. Meanwhile, the weight and cancer size of each nude mouse of the negative control group is recorded. The positive control group also has four nude mice. 1×10^6 lung cancer cells are injected into the hypodermic tissue of the right side of the abdomen of each nude mouse of the positive control group on Day 1. Next, a small-molecule anti-cancer drug Doxorubicin is intravenously injected into a region near the abdomen of each nude mouse of the positive control group once per week at a dose of 5 mg/Kg from Day 1 to Day 43 (refer to F Pastorino et. al., Clin. Cancer Res. 14(22): 7320-7329, 2008). Meanwhile, the weight and cancer size of each nude mouse of the positive control group is recorded. Different from the abovementioned two groups, medicine is not applied to the positive control group before Day 1. The medicine test group, negative control group and positive group are observed until Day 43. The mice of the three groups are dissected for examining and recording the weight of the tumor tissue on Day 43.

The next data set relates to lung cancer cells. The data set is described as follows: Xenograft model of lung cancer in nude mice, tumor volume. In kind it is in vivo, nude mice (NU/NU). As to the method: as §1, with “The negative control group also has four nude mice.” left out, “The positive control group also has four nude mice.” left out, “The medicine test group, negative control group and positive group are observed until Day 43.” left out

Another data set concerns erythrocytes. The note with it: very low concentration (lower than 5 μM); cited from earlier work.

Here are results for two compounds from patent publication US20130231458A1, “POLYPEPTIDE FOR PREVENTING AND TREATING CELL HYPERPLASIA” (priority 2011, published 2013).

For `COc1cccc2c1C(=O)c1c(O)c3c(c(O)c1C2=O)C[C@@](O)(C(=O)CO)C[C@@H]3O[C@H]1C[C@H](N)[C@H](O)[C@H](C)O1` [Dox, Doxorubicin], the “Weights of Nude Mice” value in data set [1] (D1, polypeptide 50 mg/Kg s.c. 5 times per week (plus one week before D1), Dox 5 mg/Kg i.v. once per week) is recorded as 25.6 gram; in data set [1] (D5, same dosing), 26.5 gram; in data set [1] (D8, same dosing) it was 27.8 gram; in data set [1] (D12, same dosing) it was 28.2 gram; in data set [1] (D15, same dosing) it was 28.8 gram; in data set [1] (D19, same dosing), 30.4 gram. Also, the “Weights of Nude Mice” value in data set [1] (D22, same dosing) is 30.0 gram; in data set [1] (D26, same dosing), 30.4 gram; in data set [1] (D29, same dosing), 30.0 gram; in data set [1] (D33, same dosing), 31.5 gram; in data set [1] (D36, same dosing), 32.1 gram; in data set [1] (D40, same dosing), 32.5 gram. Further, the “Weights of Nude Mice” value in data set [1] (D43, same dosing) was found to be 32.8 gram. Besides, the “weights and motilities during the experiment” value in data set [1] (Day 1 to Day 43) is recorded as “do not vary significantly”. Besides, the “Tumor Volumes of Nude Mice” value in the data set with lung cancer cells (D22, polypeptide 50 mg/Kg s.c. 5 times per week (plus one week before D1), Dox 5 mg/Kg i.v. once per week) is reported as 57.8 mm^3; with lung cancer cells (D29, same dosing), 373.8 mm^3; with lung cancer cells (D33, same dosing), 553.5 mm^3; in the data set with lung cancer cells (D36, same dosing) it was 632.6 mm^3; in the data set with lung cancer cells (D40, same dosing), 884.5 mm^3; with lung cancer cells (D43, same dosing), 1308.9 mm^3. In addition, the “ratio of the average tumor volumes of treated group and negative control group (saline)” value with lung cancer cells (at best, Day 40) stood at 52.0%; in the data set with lung cancer cells (end of the experiment (Day 43)), 83.05%.

As for `CC[C@H](C)[C@H](NC(=O)CN)C(=O)NCC(=O)N[C@@H](C)C(=O)N[C@H](C(=O)N[C@@H](CC(C)C)C(=O)N[C@@H](CCCCN)C(=O)N[C@H](C(=O)N[C@@H](CC(C)C)C(=O)N[C@H](C(=O)N[C@H](C(=O)NCC(=O)N[C@@H](CC(C)C)C(=O)N1CCC[C@H]1C(=O)N[C@@H](C)C(=O)N[C@@H](CC(C)C)C(=O)N[C@H](C(=O)N[C@@H](CO)C(=O)N[C@@H](Cc1c[nH]c2ccccc12)C(=O)N[C@H](C(=O)N[C@@H](CCCCN)C(=O)N[C@@H](CCCNC(=N)N)C(=O)N[C@@H](CCCCN)C(=O)N[C@@H](CCCNC(=N)N)C(=O)N[C@@H](CCC(N)=O)C(=O)N[C@@H](CCC(N)=O)C(N)=O)[C@@H](C)CC)[C@@H](C)CC)[C@@H](C)O)[C@@H](C)O)C(C)C)C(C)C` [melittin], the erythrocytes damaged entry in the data set on erythrocytes is listed as “about 90%”.
